Results from ChEMBL document CHEMBL1201862, “PubChem BioAssay data set” (2004).
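Grown in 96-well plates, cells were treated for 48 hours with each compound at five concentrations. Insufficient inhibition: endpoint recorded as highest concentration tested. GI50: concentration for 50% inhibition of growth.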 Active and inactive are the calls of the source. Rule as the data show it: active = GI50 up to about 1.1 µM and inactive = higher.

Experiments:
Test in all cases: DTP human tumour cell line panel, 48 h
Malme-3M = tested on: Malme-3M
UACC-257 = tested on: UACC-257
HCC 2998 = tested on: HCC 2998
NCI-H23 = tested on: NCI-H23
CCRF-CEM = tested on: CCRF-CEM
KM12 = tested on: KM12
SF-539 = tested on: SF-539
CAKI-1 = tested on: CAKI-1
SNB-75 = tested on: SNB-75
SN12C = tested on: SN12C
SK-OV-3 = tested on: SK-OV-3
UACC-62 = tested on: UACC-62
NCI-H522 = tested on: NCI-H522
HCT-116 = tested on: HCT-116
K562 = tested on: K562

Measured: GI50

Cn1cccc(C(=O)c2ccccc2)c1=O
inactive: Malme-3M > 100 µM | UACC-257 > 100 µM | HCC 2998 > 100 µM | NCI-H23 > 100 µM | CCRF-CEM > 100 µM | KM12 > 100 µM | SF-539 > 100 µM | CAKI-1 > 100 µM | SNB-75 > 100 µM | SN12C > 100 µM | SK-OV-3 > 100 µM | UACC-62 > 100 µM | NCI-H522 > 100 µM | HCT-116 > 100 µM | K562 > 100 µM

Cc1c(/C=N/NC(=O)c2ccc(Cl)cc2)c(=O)n(-c2ccccc2)n1C
inactive: Malme-3M > 100 µM | UACC-257 > 100 µM | HCC 2998 > 100 µM | NCI-H23 > 100 µM | CCRF-CEM > 100 µM | KM12 > 100 µM | SF-539 > 100 µM | SNB-75 > 100 µM | SN12C > 100 µM | SK-OV-3 > 100 µM | UACC-62 > 100 µM | NCI-H522 > 100 µM | HCT-116 > 100 µM | K562 > 100 µM

NCCOc1ccc(/C(=C(/Cl)c2ccccc2)c2ccccc2)cc1
inactive: Malme-3M 9.27 µM | UACC-257 10.8 µM | HCC 2998 4.34 µM | NCI-H23 16 µM | CCRF-CEM 7.11 µM | KM12 5.18 µM | SF-539 15.3 µM | CAKI-1 8.34 µM | SNB-75 11.4 µM | SN12C 9.66 µM | SK-OV-3 16.9 µM | UACC-62 11 µM | NCI-H522 12.4 µM | HCT-116 7.19 µM | K562 3.32 µM

CC(=O)CC(=O)CCCC(=O)Nc1ccc(Cl)cc1Cl
inactive: Malme-3M > 100 µM | UACC-257 > 100 µM | HCC 2998 > 100 µM | NCI-H23 > 100 µM | KM12 > 100 µM | SF-539 > 100 µM | CAKI-1 > 100 µM | SNB-75 > 100 µM | SN12C > 100 µM | SK-OV-3 > 100 µM | UACC-62 > 100 µM | NCI-H522 > 100 µM | HCT-116 > 100 µM | K562 > 100 µM

COc1cc2c(cc1OC)C(C(=O)O)C(c1ccccc1)N(C)C2=O (stereo unspecified)
inactive: Malme-3M > 100 µM | UACC-257 > 100 µM | HCC 2998 > 100 µM | NCI-H23 > 100 µM | CCRF-CEM > 100 µM | KM12 > 100 µM | SF-539 > 100 µM | CAKI-1 > 100 µM | SNB-75 > 100 µM | SN12C > 100 µM | SK-OV-3 > 100 µM | UACC-62 > 100 µM | NCI-H522 > 100 µM | HCT-116 > 100 µM | K562 > 100 µM

CC1=C(C(=O)Nc2ccccc2C)C(c2ccc([N+](=O)[O-])cc2)C(C(=O)Nc2ccccc2C)=C(C)N1
inactive: Malme-3M 42.7 µM | UACC-257 55.3 µM | HCC 2998 47.3 µM | NCI-H23 37.5 µM | CCRF-CEM 27.2 µM | KM12 39.3 µM | SF-539 53.6 µM | CAKI-1 36.6 µM | SNB-75 22.8 µM | SN12C 76.7 µM | SK-OV-3 > 100 µM | UACC-62 43.9 µM | NCI-H522 32 µM | K562 40.1 µM

CC(=O)OCC1OC(OCc2ccccc2)C(Br)C(OC(C)=O)C1OC(C)=O (stereo unspecified)
inactive: Malme-3M > 100 µM | UACC-257 > 100 µM | HCC 2998 > 100 µM | NCI-H23 > 100 µM | CCRF-CEM > 100 µM | KM12 > 100 µM | SF-539 > 100 µM | CAKI-1 > 100 µM | SN12C > 100 µM | UACC-62 > 100 µM | NCI-H522 > 100 µM | HCT-116 > 100 µM | K562 > 100 µM

CC(=O)C1CC=C(C)CC1 (stereo unspecified)
inactive: Malme-3M > 100 µM | UACC-257 > 100 µM | HCC 2998 > 100 µM | NCI-H23 > 100 µM | CCRF-CEM > 100 µM | KM12 > 100 µM | SF-539 > 100 µM | CAKI-1 > 100 µM | SNB-75 > 100 µM | SN12C > 100 µM | SK-OV-3 > 100 µM | UACC-62 > 100 µM | NCI-H522 > 100 µM | HCT-116 > 100 µM | K562 > 100 µM

Cc1cccc(NC(=O)CC#N)c1Cl
inactive: Malme-3M > 100 µM | UACC-257 > 100 µM | NCI-H23 > 100 µM | CCRF-CEM > 100 µM | KM12 > 100 µM | SF-539 > 100 µM | CAKI-1 > 100 µM | SNB-75 > 100 µM | SN12C > 100 µM | SK-OV-3 > 100 µM | UACC-62 > 100 µM | NCI-H522 > 100 µM | HCT-116 > 100 µM | K562 > 100 µM

CCOC1(COP(=O)(OCc2ccccc2)OCc2ccccc2)COC(COP(=O)(OCc2ccccc2)OCc2ccccc2)(OCC)CO1 (stereo unspecified)
inactive: Malme-3M > 100 µM | UACC-257 > 100 µM | HCC 2998 > 100 µM | NCI-H23 > 100 µM | CCRF-CEM > 100 µM | KM12 > 100 µM | SF-539 > 100 µM | CAKI-1 > 100 µM | SN12C > 100 µM | SK-OV-3 > 100 µM | UACC-62 > 100 µM | NCI-H522 > 100 µM | HCT-116 > 100 µM | K562 > 100 µM

O=C1C=CC(=O)C2C1Cc1ccccc1C2c1ccccc1 (stereo unspecified)
inactive: Malme-3M 59.4 µM | UACC-257 28.1 µM | HCC 2998 21.7 µM | NCI-H23 62.1 µM | CCRF-CEM 20.3 µM | KM12 51.9 µM | SF-539 30.5 µM | CAKI-1 59 µM | SNB-75 42.7 µM | SN12C 39.7 µM | SK-OV-3 > 100 µM | UACC-62 > 100 µM | NCI-H522 20.9 µM | HCT-116 37.6 µM | K562 31.6 µM

CC(=O)O[C@]1(C)OC(=O)[C@@H](C)N1[N+](=O)[O-]
inactive: Malme-3M > 100 µM | UACC-257 > 100 µM | HCC 2998 > 100 µM | NCI-H23 > 100 µM | CCRF-CEM 72.8 µM | KM12 > 100 µM | SF-539 > 100 µM | SNB-75 57.1 µM | SN12C > 100 µM | SK-OV-3 > 100 µM | UACC-62 > 100 µM | NCI-H522 > 100 µM | HCT-116 > 100 µM | K562 > 100 µM

Cc1ccc([N+]2=NC(c3ccc([N+](=O)[O-])cc3)=NN(c3ccccc3)C2)cc1
inactive: Malme-3M > 100 µM | UACC-257 47.1 µM | HCC 2998 > 100 µM | NCI-H23 38.4 µM | CCRF-CEM 24.3 µM | SN12C > 100 µM | NCI-H522 16.4 µM | HCT-116 59.7 µM | K562 20.3 µM

Cc1cc(C(=C2C=CC(=[N+](C)C)C=C2)c2ccc([N+](C)(C)C)cc2)ccc1N(C)C
inactive: Malme-3M 15.8 µM | UACC-257 12.1 µM | HCC 2998 13.8 µM | NCI-H23 10.1 µM | CCRF-CEM 2.48 µM | KM12 4.66 µM | SF-539 10.8 µM | CAKI-1 18.2 µM | SNB-75 2.65 µM | SN12C 5.07 µM | SK-OV-3 15.8 µM | UACC-62 5.55 µM | NCI-H522 15.9 µM | HCT-116 3.23 µM | K562 2.07 µM
